Assay results reported in patent publication US10786508B2, “Substituted imidazo[1,5-A]-pyrimidines and their use in the treatment of medical disorders” (Lysosomal Therapeutics Inc., priority 2014, dated 2020).
Values after ≈ are worked out from the molar mass of the structure shown.

Assays:
[1] = molecular target: T1, glucocerebrosidase (Gcase) (Homo sapiens, UniProt P04062); assay: Glucocerebrosidase (Gcase) activation assay, 4-methylumbelliferyl-beta-D-glucopyranoside substrate, with saposin C; assay type: biochemical; conditions: 10 nM GCase, 100 nM saposin C, pH 4.7; for activation at 0.1 µM: 0.1 μM test compound, read-out: Percent Gease Activation 0.1 μM Test Compound; for activation at 1 µM: 1 μM test compound, read-out: Percent Gease Activation 1 μM Test Compound
T1 construct: micellar solution containing 10 nM GCase and 100 nM saposin C
T1 sequence (P04062 40-536): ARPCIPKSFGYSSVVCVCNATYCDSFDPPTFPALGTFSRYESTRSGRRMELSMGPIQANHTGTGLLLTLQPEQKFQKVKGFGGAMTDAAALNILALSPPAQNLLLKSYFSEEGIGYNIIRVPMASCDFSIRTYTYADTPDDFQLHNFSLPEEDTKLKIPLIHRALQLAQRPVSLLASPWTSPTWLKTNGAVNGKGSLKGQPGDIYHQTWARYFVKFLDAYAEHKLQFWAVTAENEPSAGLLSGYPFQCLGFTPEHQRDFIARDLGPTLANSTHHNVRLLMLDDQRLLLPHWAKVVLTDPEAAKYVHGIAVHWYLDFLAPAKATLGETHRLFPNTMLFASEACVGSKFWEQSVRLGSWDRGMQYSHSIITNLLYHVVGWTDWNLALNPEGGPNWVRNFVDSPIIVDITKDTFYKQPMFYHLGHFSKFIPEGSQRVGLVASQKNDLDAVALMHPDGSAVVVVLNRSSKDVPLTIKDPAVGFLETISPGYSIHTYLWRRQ
Description: The ability of exemplary compounds to activate glucocerebrosidase (Gcase) was measured.
A 484 μL aliquot of a 1.0 mg/mL solution of phosphatidylserine (PS) (Sigma P7769) in chloroform was evaporated under a stream of nitrogen for 1 hour. The lipid film was dissolved over 4 minutes of vigorous vortexing in 40 mL of 176 mM K2HPO4/50 mM citric acid (pH 4.7) containing 7.5 μL of triton X-100, resulting in a mixed micellar preparation with a composition of 0.32 mM triton and 0.37 mol % PS. 4-Methylumbelliferyl-beta-D-glucopyranoside (ACROS-337025000) was dissolved in the micellar solution to a final concentration of 2 mM for use as the reaction substrate.
Test compounds were diluted to the desired concentrations with dimethylsulfoxide (DMSO) from 10 mM stocks, and 0.41 μL of the DMSO compound mixture was added to 100 μL of micellar solution containing 10 nM GCase and 100 nM saposin C (Enzo ALX-201-262-C050). Pre-incubation was allowed to occur for 30 minutes at room temperature, after which the reaction was initiated by combining 25 μL of substrate solution with 25 μL of compound/GCase/saposin mixture. The reaction proceeded for 15 minutes at room temperature and was stopped by adding 150 μL of 1M glycine, pH 12.5. The endpoint of the reaction was monitored by measuring fluorescence intensity (excitation: 365 nm; emission: 440 nm) on a SpectraMax i3 instrument (Molecular Devices). Test compounds were screened at 1.0 and 0.1 μM final concentration, and subsequent 8-point dose response curves were obtained using 3-fold dilutions from a maximum final concentration of 5 μM.
For experiments in which the test compound was used at a concentration of 1.0 μM, the symbol “+” indicates less than 30% Gcase activation; the symbol “++” indicates Gcase activation in the range of 30% up to 60%; and the symbol “+++” indicates Gcase activation greater than 60%. For experiments in which the test compound was used at a concentration of 0.1 μM, the symbol “*” indicates less than 10% Gcase activation; the symbol “**” indicates Gcase activation in the range of 10% up to 20%; and the symbol “***” indicates greater than 20% Gcase activation.

[2] = Compound solubility in water; assay type: physicochemical

SMILES | activation at 0.1 µM [1] | activation at 1 µM [1] | solubility [2]
Cc1cc(C)n2cnc(C(=O)NC3CCc4ccccc4C3)c2n1 (stereo not drawn) [III-69] | < 10% | 30 to 60% | 16.6 µg/mL (≈ 51.8 µM)
CCCCCO[C@H]1CC[C@H](NC(=O)c2ncn3c(C)cc(C)nc23)CC1 [III-70] | 10 to 20% | 30 to 60% | 19.6 µg/mL (≈ 54.7 µM)
Cc1cc(C)n2cnc(C(=O)NC3CCCc4ccccc43)c2n1 (stereo not drawn) [III-71] | < 10% | 30 to 60% | 70.7 µg/mL (≈ 221 µM)
COCc1cc(C2CC2)n2cnc(C(=O)NC3(C)CCOc4c(F)ccc(F)c43)c2n1 (stereo not drawn) [III-72] | < 10% | 30 to 60% | 23.6 µg/mL (≈ 55.1 µM)
CCOCc1cccc(C(C)(C)NC(=O)c2ncn3c(C4CC4)cc(COC)nc23)c1 [III-73] | < 10% | < 30% | 31.6 µg/mL (≈ 74.8 µM)
Cc1cc(C)n2cnc(C(=O)N[C@@H](C)c3ccccc3F)c2n1 [III-74] | < 10% | < 30% | 37.3 µg/mL (≈ 119 µM)
COc1ccccc1[C@H](C)NC(=O)c1ncn2c(C)cc(C)nc12 [III-75] | < 10% | 30 to 60% | 22.6 µg/mL (≈ 69.7 µM)
COc1ccccc1[C@@H](C)NC(=O)c1ncn2c(C)cc(C)nc12 [III-76] | < 10% | 30 to 60% | 23 µg/mL (≈ 70.9 µM)
Cc1cc(C)n2cnc(C(=O)N[C@@H](C)c3cccc(Cl)c3)c2n1 [III-77] | < 10% | 30 to 60% | 26 µg/mL (≈ 79.1 µM)
CCC(NC(=O)c1ncn2c(C)cc(C)nc12)c1ccc(F)cc1 (stereo not drawn) [III-78] | < 10% | 30 to 60% | 39.5 µg/mL (≈ 121 µM)
COc1ccc(F)cc1C(C)NC(=O)c1ncn2c(C)cc(C)nc12 (stereo not drawn) [III-79] | < 10% | 30 to 60% | 32 µg/mL (≈ 93.5 µM)
CCOc1ccc(C(C)NC(=O)c2ncn3c(C)cc(C)nc23)cc1 (stereo not drawn) [III-80] | < 10% | < 30% | 25.9 µg/mL (≈ 76.5 µM)
CCC(NC(=O)c1ncn2c(C)cc(C)nc12)c1cccc(Cl)c1 (stereo not drawn) [III-81] | 10 to 20% | > 60% | 20.3 µg/mL (≈ 59.2 µM)
Cc1cc(C)n2cnc(C(=O)NC(C)(C)c3cccc(Cl)c3)c2n1 [III-82] | < 10% | > 60% | 14.8 µg/mL (≈ 43.2 µM)
Cc1cc(C)n2cnc(C(=O)N[C@H](C)c3ccc(Cl)cc3)c2n1 [III-83] | < 10% | 30 to 60% | 16.5 µg/mL (≈ 50.2 µM)
CCCCO[C@H]1C[C@H]2CC[C@@H](C1)[C@H]2NC(=O)c1ncn2c(C)cc(C)nc12 [III-84] | > 20% | > 60% | 0.2 µg/mL (≈ 0.54 µM)
CCCCO[C@H]1[C@@H]2CC[C@H]1C[C@@H](NC(=O)c1ncn3c(C)cc(C)nc13)C2 [III-85] | < 10% | > 60% | 13.1 µg/mL (≈ 35.4 µM)
CCCCO[C@@H]1[C@@H]2CC[C@H]1C[C@@H](NC(=O)c1ncn3c(C)cc(C)nc13)C2 [III-86] | 10 to 20% | > 60% | 14.6 µg/mL (≈ 39.4 µM)
